Test system: MV-4-11 cells
Assay: Gene expression microarray analysis (Affymetrix PrimeView) and GSEA
Format: cell-based, human
Design: RFU PODN (11730768_x_at) / Fold change /veh PODN (11730768_x_at) / RFU LINC00158 (11744669_a_at) / Fold change /veh LINC00158 (11744669_a_at) / RFU DUSP10 (11751237_a_at) / Fold change /veh DUSP10 (11751237_a_at) / RFU ID3 (11757404_x_at) / Fold change /veh ID3 (11757404_x_at) / RFU PLEKHG5 (11737974_s_at) / Fold change /veh PLEKHG5 (11737974_s_at) / RFU LRRC4B (11730491_at) / Fold change /veh LRRC4B (11730491_at) / RFU GIMAP4 (11747438_a_at) / Fold change /veh GIMAP4 (11747438_a_at) / RFU KRT8 (11758183_x_at) / Fold change /veh KRT8 (11758183_x_at) / RFU CNN1 (11734310_a_at) / Fold change /veh CNN1 (11734310_a_at) / RFU VPS37D (11726825_at) / Fold change /veh VPS37D (11726825_at) / RFU C10orf10 (11716522_x_at) / Fold change /veh C10orf10 (11716522_x_at) / RFU KIR2DL2 /// KIR2DL4 /// KIR2DL5A /// KIR2DL5B /// KIR2DS1 /// KIR2DS2 /// KIR2DS3 /// KIR2DS4 /// KIR3DL3 /// KIR3DL3 /// KIR3DS1 (11738374_at) / Fold change /veh KIR2DL2 /// KIR2DL4 /// KIR2DL5A /// KIR2DL5B /// KIR2DS1 /// KIR2DS2 /// KIR2DS3 /// KIR2DS4 /// KIR3DL3 /// KIR3DL3 /// KIR3DS1 (11738374_at) / RFU C1QL1 (11718748_at) / Fold change /veh C1QL1 (11718748_at) / RFU TMPRSS4 (11747572_a_at) / Fold change /veh TMPRSS4 (11747572_a_at) / RFU HAMP (11756126_x_at) / Fold change /veh HAMP (11756126_x_at) / RFU RNFT2 (11725882_a_at) / Fold change /veh RNFT2 (11725882_a_at) / RFU NR4A2 (11747474_a_at) / Fold change /veh NR4A2 (11747474_a_at) / RFU ABCC12 (11746883_a_at) / Fold change /veh ABCC12 (11746883_a_at) / RFU TMEM136 (11760407_x_at) / Fold change /veh TMEM136 (11760407_x_at) / RFU CLDN22 /// WWC2 (11732394_at) / Fold change /veh CLDN22 /// WWC2 (11732394_at) / RFU HLA-DPB1 (11760878_x_at) / Fold change /veh HLA-DPB1 (11760878_x_at) / RFU SPINT1 (11716480_a_at) / Fold change /veh SPINT1 (11716480_a_at) / RFU GAP43 (11754022_s_at) / Fold change /veh GAP43 (11754022_s_at) / RFU A4GNT (11735810_at) / Fold change /veh A4GNT (11735810_at) / RFU PRB3 (11715151_x_at) / Fold change /veh PRB3 (11715151_x_at) / RFU TUBB4B (11761932_at) / Fold change /veh TUBB4B (11761932_at) / RFU CAPN14 (11732068_a_at) / Fold change /veh CAPN14 (11732068_a_at) / RFU TMCC2 (11721928_a_at) / Fold change /veh TMCC2 (11721928_a_at) / RFU IRGQ (11745062_a_at) / Fold change /veh IRGQ (11745062_a_at) / RFU FAM174B (11720279_a_at) / Fold change /veh FAM174B (11720279_a_at) / RFU TMPRSS4 (11748680_a_at) / Fold change /veh TMPRSS4 (11748680_a_at) / RFU FAM212B (11763350_a_at) / Fold change /veh FAM212B (11763350_a_at) / RFU PLEKHG5 (11743358_a_at) / Fold change /veh PLEKHG5 (11743358_a_at) / RFU ZSCAN30 (11745921_a_at) / Fold change /veh ZSCAN30 (11745921_a_at) / RFU CMKLR1 (11741424_a_at) / Fold change /veh CMKLR1 (11741424_a_at) / RFU LOC101060620 /// MAPK8IP1 (11723275_at) / Fold change /veh LOC101060620 /// MAPK8IP1 (11723275_at) / RFU SPTSSB (11747773_x_at) / Fold change /veh SPTSSB (11747773_x_at) / RFU PRSS12 (11739890_at) / Fold change /veh PRSS12 (11739890_at) / RFU BIN1 (11741810_x_at) / Fold change /veh BIN1 (11741810_x_at) / RFU WNT11 (11732464_a_at) / Fold change /veh WNT11 (11732464_a_at) / RFU C10orf10 (11716521_a_at) / Fold change /veh C10orf10 (11716521_a_at) / RFU C5orf56 (11738089_at) / Fold change /veh C5orf56 (11738089_at) / RFU CYB561 (11721691_x_at) / Fold change /veh CYB561 (11721691_x_at) / RFU ANKRD19P (11752326_a_at) / Fold change /veh ANKRD19P (11752326_a_at) / RFU OR2T12 /// OR2T33 /// OR2T8 (11738714_s_at) / Fold change /veh OR2T12 /// OR2T33 /// OR2T8 (11738714_s_at) / RFU VCAN (11748164_a_at) / Fold change /veh VCAN (11748164_a_at) / RFU JSRP1 (11732532_at) / Fold change /veh JSRP1 (11732532_at) / RFU KRTAP10-11 (11738290_x_at) / Fold change /veh KRTAP10-11 (11738290_x_at) / RFU MYO3A (11730013_a_at) / Fold change /veh MYO3A (11730013_a_at) / RFU EBF3 (11725865_a_at) / Fold change /veh EBF3 (11725865_a_at) / RFU CAMK2N1 (11719241_x_at) / Fold change /veh CAMK2N1 (11719241_x_at) / RFU C5orf56 (11738088_a_at) / Fold change /veh C5orf56 (11738088_a_at) / RFU OLFML3 (11715873_a_at) / Fold change /veh OLFML3 (11715873_a_at) / RFU LOC100653217 /// NTM (11731650_a_at) / Fold change /veh LOC100653217 /// NTM (11731650_a_at) / RFU MAPK11 (11762145_a_at) / Fold change /veh MAPK11 (11762145_a_at) / RFU FIZ1 (11724087_x_at) / Fold change /veh FIZ1 (11724087_x_at) / RFU OASL (11726364_x_at) / Fold change /veh OASL (11726364_x_at) / RFU SOX15 (11748057_x_at) / Fold change /veh SOX15 (11748057_x_at) / RFU CD79A (11719716_a_at) / Fold change /veh CD79A (11719716_a_at) / RFU HIST1H1D (11736915_at) / Fold change /veh HIST1H1D (11736915_at) / RFU CASKIN2 (11723855_a_at) / Fold change /veh CASKIN2 (11723855_a_at) / RFU LOC730098 (11760151_x_at) / Fold change /veh LOC730098 (11760151_x_at) / RFU OR4N2 (11742367_at) / Fold change /veh OR4N2 (11742367_at) / RFU PRRT2 (11749266_a_at) / Fold change /veh PRRT2 (11749266_a_at) / RFU SNX32 (11753110_a_at) / Fold change /veh SNX32 (11753110_a_at) / RFU CDHR5 (11726645_a_at) / Fold change /veh CDHR5 (11726645_a_at) / RFU RCAN1 (11760418_a_at) / Fold change /veh RCAN1 (11760418_a_at) / RFU FAM167A (11723789_a_at) / Fold change /veh FAM167A (11723789_a_at) / RFU FAM26E (11764081_at) / Fold change /veh FAM26E (11764081_at) / RFU ISYNA1 (11749810_s_at) / Fold change /veh ISYNA1 (11749810_s_at) / RFU ACY1 (11761880_at) / Fold change /veh ACY1 (11761880_at) / RFU 11764098_at / Fold change /veh 11764098_at / RFU SAMD14 (11745864_x_at) / Fold change /veh SAMD14 (11745864_x_at) / RFU NPB (11741838_a_at) / Fold change /veh NPB (11741838_a_at) / RFU TMPRSS6 (11731388_a_at) / Fold change /veh TMPRSS6 (11731388_a_at) / RFU KRTAP10-2 (11738614_at) / Fold change /veh KRTAP10-2 (11738614_at) / RFU ARHGAP8 /// PRR5-ARHGAP8 (11727945_x_at) / Fold change /veh ARHGAP8 /// PRR5-ARHGAP8 (11727945_x_at) / RFU KRTAP5-7 /// NADSYN1 (11734609_at) / Fold change /veh KRTAP5-7 /// NADSYN1 (11734609_at) / RFU RASL12 (11751679_a_at) / Fold change /veh RASL12 (11751679_a_at) / RFU CDKN2B (11736163_a_at) / Fold change /veh CDKN2B (11736163_a_at) / RFU PRF1 (11729649_at) / Fold change /veh PRF1 (11729649_at) / RFU, ZNF638 /// ZNF638-IT1 / Fold change vs veh, ZNF638 /// ZNF638-IT1 / RFU, PANK3 / Fold change vs veh, PANK3 / RFU, SH3YL1 / Fold change vs veh, SH3YL1 / RFU, ZEB2 / Fold change vs veh, ZEB2 / RFU, NRIP1 / Fold change vs veh, NRIP1 / RFU, PTTG1IP / Fold change vs veh, PTTG1IP / RFU, CAPN2 / Fold change vs veh, CAPN2 / RFU, MED14 / Fold change vs veh, MED14 / RFU, SNORA58 / Fold change vs veh, SNORA58 / RFU, C1orf63 / Fold change vs veh, C1orf63 / RFU, LRRFIP1 / Fold change vs veh, LRRFIP1 / RFU, NDUFAF7 / Fold change vs veh, NDUFAF7 / RFU, SLC12A2 / Fold change vs veh, SLC12A2 / RFU, IBTK / Fold change vs veh, IBTK / RFU, ESF1 / Fold change vs veh, ESF1 / Fold change vs veh, TMEM50B / RFU, TAOK1 / Fold change vs veh, TAOK1 / RFU, ACBD3 / Fold change vs veh, ACBD3 / RFU, TMA16 / Fold change vs veh, TMA16 / RFU, RWDD3 / Fold change vs veh, RWDD3 / RFU, BCAT1 / Fold change vs veh, BCAT1 / RFU, EDEM3 / Fold change vs veh, EDEM3 / RFU, TMEM33 / Fold change vs veh, TMEM33 / RFU, WDR75 / Fold change vs veh, WDR75 / RFU, AHCTF1 / Fold change vs veh, AHCTF1 / RFU, TFRC / Fold change vs veh, TFRC / RFU, ZDHHC17 / Fold change vs veh, ZDHHC17 / RFU, NOM1 / Fold change vs veh, NOM1 / RFU, ARL8B / Fold change vs veh, ARL8B / RFU, ZBTB11 / Fold change vs veh, ZBTB11 / RFU, TAMM41 / Fold change vs veh, TAMM41 / RFU, KIAA1704 /// LOC100996395 / Fold change vs veh, KIAA1704 /// LOC100996395 / RFU, ING1 / Fold change vs veh, ING1 / RFU, TRMT61B / Fold change vs veh, TRMT61B / RFU, FUBP3 / Fold change vs veh, FUBP3 / RFU, TP53 / Fold change vs veh, TP53 / RFU, TNKS2 / Fold change vs veh, TNKS2 / RFU, ZFP14 / Fold change vs veh, ZFP14 / RFU, ACTR2 / Fold change vs veh, ACTR2 / RFU, PPP3R1 / Fold change vs veh, PPP3R1 / RFU, PIK3R1 / Fold change vs veh, PIK3R1 / RFU, HNRNPA1 / Fold change vs veh, HNRNPA1 / RFU, RNF170 / Fold change vs veh, RNF170 / RFU, ZNF28 / Fold change vs veh, ZNF28 / RFU, RNGTT / Fold change vs veh, RNGTT / RFU, OGT / Fold change vs veh, OGT / RFU, BRD1 / Fold change vs veh, BRD1 / RFU, MARS / Fold change vs veh, MARS / RFU, ZNF655 / Fold change vs veh, ZNF655 / RFU, FAHD1 / Fold change vs veh, FAHD1 / RFU, BDP1 / Fold change vs veh, BDP1 / RFU, LRRCC1 / Fold change vs veh, LRRCC1 / RFU, ARID1A / Fold change vs veh, ARID1A / RFU, ZNF146 / Fold change vs veh, ZNF146 / RFU, ZNF330 / Fold change vs veh, ZNF330 / RFU, GPN3 / Fold change vs veh, GPN3 / RFU, C9orf123 / Fold change vs veh, C9orf123 / RFU, N4BP2L2 / Fold change vs veh, N4BP2L2 / RFU, ARFIP1 / Fold change vs veh, ARFIP1 / RFU, FAM179B / Fold change vs veh, FAM179B / RFU, BCL10 / Fold change vs veh, BCL10 / RFU, UHRF1BP1L / Fold change vs veh, UHRF1BP1L / RFU, BET1 / Fold change vs veh, BET1 / RFU, CNOT2 / Fold change vs veh, CNOT2 / RFU, ZNF268 / Fold change vs veh, ZNF268 / Fold change vs veh, ZNF507 / RFU, DGCR2 / Fold change vs veh, DGCR2 / RFU, WDSUB1 / Fold change vs veh, WDSUB1 / Fold change vs veh, HSP90B1 /// MIR3652 / RFU, ADSS / Fold change vs veh, ADSS / RFU, GK / Fold change vs veh, GK / RFU, ZNF148 / Fold change vs veh, ZNF148 / RFU, TAF9 / Fold change vs veh, TAF9 / RFU, SLC1A5 / Fold change vs veh, SLC1A5 / RFU, SLMO2 / Fold change vs veh, SLMO2 / RFU, ABCC4 / Fold change vs veh, ABCC4 / RFU, LOC101060439 /// RAP1B / Fold change vs veh, LOC101060439 /// RAP1B / RFU, RFX7 / Fold change vs veh, RFX7 / RFU, GTPBP10 / Fold change vs veh, GTPBP10 / RFU, CNEP1R1 / Fold change vs veh, CNEP1R1 / RFU, BIVM-ERCC5 /// ERCC5 / Fold change vs veh, BIVM-ERCC5 /// ERCC5 / RFU, ILF3 / Fold change vs veh, ILF3 / RFU 11762660_at / Fold change /veh 11762660_at / RFU VCAN (11757783_s_at) / Fold change /veh VCAN (11757783_s_at) / RFU DDX43 (11728927_at) / Fold change /veh DDX43 (11728927_at) / RFU KRT8 (11758188_x_at) / Fold change /veh KRT8 (11758188_x_at) / RFU NKD1 (11759106_at) / Fold change /veh NKD1 (11759106_at) / RFU SRD5A1 (11742802_a_at) / Fold change /veh SRD5A1 (11742802_a_at) / RFU TPSAB1 /// TPSB2 (11721975_s_at) / Fold change /veh TPSAB1 /// TPSB2 (11721975_s_at) / RFU GSTM3 (11746129_a_at) / Fold change /veh GSTM3 (11746129_a_at) / RFU IL23R (11737362_x_at) / Fold change /veh IL23R (11737362_x_at) / RFU TMEM51 (11727254_a_at) / Fold change /veh TMEM51 (11727254_a_at) / RFU PIWIL2 (11732686_x_at) / Fold change /veh PIWIL2 (11732686_x_at) / RFU ORM1 (11744905_x_at) / Fold change /veh ORM1 (11744905_x_at) / RFU CCDC152 (11743942_at) / Fold change /veh CCDC152 (11743942_at) / RFU ECM1 (11717891_a_at) / Fold change /veh ECM1 (11717891_a_at) / RFU IL23R (11748794_a_at) / Fold change /veh IL23R (11748794_a_at) / RFU TNFAIP8L3 (11732012_x_at) / Fold change /veh TNFAIP8L3 (11732012_x_at) / RFU MBOAT4 (11741988_at) / Fold change /veh MBOAT4 (11741988_at) / RFU 11764193_at / Fold change /veh 11764193_at / RFU TMEM53 (11763286_at) / Fold change /veh TMEM53 (11763286_at) / RFU MAGEB2 (11727129_at) / Fold change /veh MAGEB2 (11727129_at) / RFU TMEM200A (11744735_a_at) / Fold change /veh TMEM200A (11744735_a_at) / RFU CCDC152 (11751479_a_at) / Fold change /veh CCDC152 (11751479_a_at) / RFU FAM211A (11726209_a_at) / Fold change /veh FAM211A (11726209_a_at) / RFU RGS16 (11746705_a_at) / Fold change /veh RGS16 (11746705_a_at) / RFU VCAN (11755009_s_at) / Fold change /veh VCAN (11755009_s_at) / RFU RHOB (11743442_s_at) / Fold change /veh RHOB (11743442_s_at) / RFU RGS16 (11720943_a_at) / Fold change /veh RGS16 (11720943_a_at) / RFU RGS16 (11720944_at) / Fold change /veh RGS16 (11720944_at) / RFU, VPS4B / Fold change vs veh, VPS4B / RFU, CREB1 / Fold change vs veh, CREB1 / RFU, DNAJC13 / Fold change vs veh, DNAJC13 / RFU, GNAQ / Fold change vs veh, GNAQ / RFU, CDK5R1 / Fold change vs veh, CDK5R1 / RFU, ZRANB3 / Fold change vs veh, ZRANB3 / RFU, CUL4A / Fold change vs veh, CUL4A / RFU, CCNY / Fold change vs veh, CCNY / RFU, UFL1 / Fold change vs veh, UFL1 / RFU, COG3 / Fold change vs veh, COG3 / RFU, DIAPH2 / Fold change vs veh, DIAPH2 / RFU, SKA2 / Fold change vs veh, SKA2 / RFU, AFF3 / Fold change vs veh, AFF3 / RFU, LMF1 / Fold change vs veh, LMF1 / RFU, IPO11 / Fold change vs veh, IPO11 / RFU, DFFB / Fold change vs veh, DFFB / RFU, FOXP1 / Fold change vs veh, FOXP1 / RFU, CARD8 / Fold change vs veh, CARD8 / RFU, STRN3 / Fold change vs veh, STRN3 / RFU, ADK / Fold change vs veh, ADK / RFU, RASSF2 / Fold change vs veh, RASSF2 / RFU, WIPF1 / Fold change vs veh, WIPF1 / RFU, LARP1B / Fold change vs veh, LARP1B / RFU, RASA1 / Fold change vs veh, RASA1 / RFU, RB1 / Fold change vs veh, RB1 / RFU, PPFIA1 / Fold change vs veh, PPFIA1 / RFU, MAT2A / Fold change vs veh, MAT2A / RFU, CCT5 / Fold change vs veh, CCT5 / RFU, WDR92 / Fold change vs veh, WDR92 / RFU, CUX1 / Fold change vs veh, CUX1 / RFU, TTC7A / Fold change vs veh, TTC7A / RFU, TMEM135 / Fold change vs veh, TMEM135 / RFU, DEPTOR / Fold change vs veh, DEPTOR / RFU, CPM / Fold change vs veh, CPM / RFU, DNAJB6 / Fold change vs veh, DNAJB6 / RFU, CACNA2D3 / Fold change vs veh, CACNA2D3 / RFU, DTX4 / Fold change vs veh, DTX4 / RFU, TFCP2 / Fold change vs veh, TFCP2 / RFU, GMCL1 /// GMCL1P1 / Fold change vs veh, GMCL1 /// GMCL1P1 / RFU, AEBP2 / Fold change vs veh, AEBP2 / RFU, SNHG1 /// SNORD22 /// SNORD25 /// SNORD26 /// SNORD27 /// SNORD28 /// SNORD29 /// SNORD31 / Fold change vs veh, SNHG1 /// SNORD22 /// SNORD25 /// SNORD26 /// SNORD27 /// SNORD28 /// SNORD29 /// SNORD31 / Fold change (Aza/veh), C12orf56 (ProbeSet 11735607_a_at) / Fold change (ACY-1035/veh), C12orf56 (ProbeSet 11735607_a_at) / Fold change (Aza/veh), FGFR1OP (ProbeSet 11751329_s_at) / Fold change (ACY-1035/veh), FGFR1OP (ProbeSet 11751329_s_at) / Fold change (Aza/veh), VPS36 (ProbeSet 11739960_a_at) / Fold change (ACY-1035/veh), VPS36 (ProbeSet 11739960_a_at) / RFU SYPL1 (11715823_x_at) / Fold change /veh SYPL1 (11715823_x_at) / RFU IGFBP7 (11715501_s_at) / Fold change /veh IGFBP7 (11715501_s_at) / RFU REEP3 (11722064_at) / Fold change /veh REEP3 (11722064_at) / RFU IGLL1 (11728026_x_at) / Fold change /veh IGLL1 (11728026_x_at): dose or concentration left out as unconfirmed
Conditions: ProbeSet 11722302_a_at; LIST B

## Nc1ncn([C@@H]2O[C@H](CO)[C@@H](O)[C@H]2O)c(=O)n1 [azacitidine]
  RFU, LRRFIP1: 130.71 RFU
